In US9421181B2, “Antihypoxic pharmaceutical composition and application thereof” (CHANGZHOU HI-TECH DISTRICT MULTIPLE DIMENSION INDUSTRY …, priority 2013, dated 2016):
Counter-ions that a name gives are not always drawn.

Experiments:
[1] = tested on: mice under the condition of normobaric hypoxia; test: Hypoxia tolerance and survival time of mice under normobaric hypoxia (sealed bottle with soda lime); type: in vivo; details: intragastric once a day 7 days
Protocol: (§1) Choose 100 male mice with weight of 20±2 g, randomly group them into 10 by weight with each group of 10 mice, and then inject 10 ml/kg preparation to experimental groups, and the same volume of normal saline to control group by tail intravenous injection once a day for consecutive 7 days. One hour after the last injection, put each mouse into a 160 ml wild-mouth bottle, into which 5 g soda lime has been pre-added, and then seal tightly the caps with petroleum jelly. Record survival time of the mice with death as the indicator.
(§2) Choose 80 male mice with weight of 20±2 g, randomly group them into 8 by weight with each group of 10 mice, and then administer 20 ml/kg preparation intragastrically to the mice of experimental groups, and the same volume of normal saline to control group once a day for consecutive 7 days. One hour after the last administration, put each mouse into a 160 ml wild-mouth bottle, into which 5 g soda lime has been pre-added, and then seal tightly the caps with petroleum jelly. Record survival time of the mice with death as the indicator.
as §2, with “40” for “80”, “4” for “8”
as §1, with “Choose 370” for “Choose 100”, “into 37” for “into 10”, “group” for “group by tail intravenous injection”

[2] = tested on: mice model of acute brain hypoxia; test: Mice model of acute brain hypoxia: breathing time after decollation; type: in vivo, Kunming mice; details: intragastric once a day 7 days
Protocol: (§3) Randomly group 70 Kunming male mice into 7 groups: control group, group of L-carnitine 450 mg/kg, group of trimetazidine 9 mg/kg, group of vinpocetine 1.5 mg/kg, group of L-carnitine 450+trimetazidine 9 mg/kg, group of trimetazidine 9+vinpocetine 1.5 mg/kg, and group of L-carnitine 450+trimetazidine 9+vinpocetine 1.5 mg/kg, with each group of 10 mice. Administer […] preparation intragastrically to the mice of experimental groups, and the same volume of normal saline to control group once a day for consecutive 7 days. One hour after the last administration, behead the mice immediately from behind the ear, and stopwatch the breathing time of mice after their decollation.

brain tissue of the mice = test: Content of EAA (Glu, Asp, GABA, Gly) in brain tissue after decollation; type: in vivo, Kunming mice; details: intragastric 7 days
Protocol: as §3
Biochemical indicator test of brain tissue: After death of the mice, immediately get their brain tissues in ice bath, wash them in ice saline to remove the residual blood, and then add ice […] according to the proportion of 1:9. Under the condition of ice bath, high-speed homogenate machine (10 s per times, at intervals of 15 s for 4 times) is used to make the brain tissue into 10% cerebral homogenate. Centrifuge the homogenate under the temperature of 4° C. with the speed of 2000 r/min for 5 min to separate the supernatant, and detect the content of glutamic acid (Glu), aspartic acid (Asp), aminobutyric acid (GABA), and glycine (Gly) in the brain tissue of the mice by amino acid analyzer. After brain injury, the content of Glu, Asp, GABA and Gly, etc. (representatives of the excitatory amino acid (EAA)) in the brain is higher. In particular, one of the important mechanisms that could cause the death of secondary brain injury neurons is the excessive release of Glu. An important reason that leads to delayed neuronal death is the cascade of damage due to calcium overload in the neurons, which is caused by the activation of receptor N-methyl-D-aspartate (NMDA) by Glu. The degree to which the mitochondrial function is damaged determines the death method of neurons [Clemens J A, Stephenson D T, Smalsting E B. Global ischemia activate nuclear. Storke, 1997, 28:1073-1076].

C[N+](C)(C)C[C@H](O)CC(=O)[O-] [L-carnitine]
Prolonged Survival Time ([1]; L-carnitine 450 mg/kg alone): 31.6%
Survival Time ([1]; L-carnitine 450 mg/kg alone): 29.6 ± 3.6 min
Breathing Time after Decollation ([2]; L-carnitine 450 mg/kg): 18.6 ± 1.2 S
Asp content in brain tissue (brain tissue of the mice; L-carnitine 450 mg/kg): 15.68 ± 4.23 µmol/L
GABA content in brain tissue (brain tissue of the mice; L-carnitine 450 mg/kg): 3.71 ± 1.11 µmol/L
Glu content in brain tissue (brain tissue of the mice; L-carnitine 450 mg/kg): 18.45 ± 1.22 µmol/L
Gly content in brain tissue (brain tissue of the mice; L-carnitine 450 mg/kg): 3.54 ± 1.29 µmol/L

COc1ccc(CN2CCNCC2)c(OC)c1OC [Trimetazidine, trimetazidine hydrochloride]
Breathing Time after Decollation ([2]; trimetazidine 9 mg/kg): 18.5 ± 2.1 S
Asp content in brain tissue (brain tissue of the mice; trimetazidine 9 mg/kg): 15.21 ± 2.06 µmol/L
GABA content in brain tissue (brain tissue of the mice; trimetazidine 9 mg/kg): 3.44 ± 1.12 µmol/L
Glu content in brain tissue (brain tissue of the mice; trimetazidine 9 mg/kg): 17.02 ± 0.99 µmol/L
Gly content in brain tissue (brain tissue of the mice; trimetazidine 9 mg/kg): 3.49 ± 1.12 µmol/L

CCOC(=O)C1=C[C@]2(CC)CCCN3CCc4c(n1c1ccccc41)[C@@H]32 [Vinpocetine, vinpocetine]
Prolonged Survival Time ([1]; vinpocetine 1.5 mg/kg alone): 13.6%
Survival Time ([1]; vinpocetine 1.5 mg/kg alone): 25.1 ± 4.8 min
Breathing Time after Decollation ([2]; vinpocetine 1.5 mg/kg): 19.5 ± 1.5 S
Asp content in brain tissue (brain tissue of the mice; vinpocetine 1.5 mg/kg): 15.46 ± 2.21 µmol/L
GABA content in brain tissue (brain tissue of the mice; vinpocetine 1.5 mg/kg): 3.15 ± 1.05 µmol/L
Glu content in brain tissue (brain tissue of the mice; vinpocetine 1.5 mg/kg): 19.12 ± 2.01 µmol/L
Gly content in brain tissue (brain tissue of the mice; vinpocetine 1.5 mg/kg): 3.82 ± 1.84 µmol/L
